Measurements as given in paper PMC9921063 (Molecules, 2023).
Converted amounts (≈) assume the structure as drawn.

Key:
[1] = ABTS radical scavenging assay; details: antiradical scavenging; mean ± S.D.
Procedure: (§1) Three methods were used for the assessing antioxidant properties of the selected compounds, which are 2.2-diphenyl-1-picrylhydrazyl (DPPH), 2.2’-azino-bis (3-ethylbenzothiazoline-6-sulphonic acid) (ABTS) radicals scavenging, and β-carotene linoleic acid bleaching assay. […] The control compound was butylated hydroxytoluene (BHT), which is a potent antioxidant.
ABTS radical scavenging activity was conducted by referring to the method of Re et al..
(§2) All the assays used for antioxidant determination (DPPH, ABTS, and β-carotene bleaching assay) were performed simultaneously three times in the same conditions. The results obtained in µM mL^−1 average of the three experiments.

[2] = tested on: T. gondii tachyzoites RH strain; assay: Antitoxoplasmal assay; format: cell-based, Toxoplasma gondii; details: mean ± S.D.; for IC50: Toxoplasma gondii
Procedure: This assay was carried out according to the methods mentioned in our previously published article. Vero cells line (ATCC® CCL81™, USA) were used for the serial passage and cultivation of T. gondii tachyzoites RH strain, complete RPMI 1640 medium with heat-inactivated 10% FBS was used for the culture and in vitro evaluation, while atovaquone (ATO) was used as reference drug. The results were expressed in IC50 of three independent readings, followed by the selectivity index (SI) calculation by dividing CC50 over IC50 of the same compound [56].

[3] = β-Carotene linoleic acid bleaching assay; details: β-carotene bleaching test; mean ± S.D.
Procedure: as §1
β-Carotene bleaching test was conducted following the method described by Pratt’s.
as §2

L. major amastigotes = assay: Antileishmanial assay, amastigotes; format: cell-based, Leishmania major; details: mean ± S.D.; for IC50: Leishmania major, read-out: Amastigote IC50
Procedure: (§3) This assay was carried out according to the methods mentioned in our previously published article. L. major promastigotes were isolated locally from an indoor patient in 2016, liquid nitrogen was used for the preservation of the parasites, and BALB/c mice were used for the maintenance of the parasites and production of L. major amastigotes. Phenol red-free RPMI 1640 medium (Invitrogen, USA) with 10% FBS was used for the culture and in vitro evaluation, while amphotericin B (AmB) was used as reference drug.

Vero cell = assay: In vitro cytotoxicity assay, MTT; format: cell-based; details: mean ± S.D.
Procedure: (§4) MTT colorimetric technique was carried out for cytotoxicity evaluation according to the methods mentioned in our previously published article. An amount of 96 well plates with complete were used for the culture of the cells. FLUOstar OPTIMA spectrophotometer was applied for colorimetric analysis and in vitro evaluation.

[4] = tested on: colon carcinoma cells (HCT-116); assay: In vitro anticancer proliferation (cytotoxicity) assay; format: cell-based, human; details: for IC50 HCT-116: mean ± S.D.; for IC50: Homo sapiens, HCT-116, mean ± S.D.
Procedure: (§5) The selected compound was investigated for its cytotoxic properties against HCT-116 and HepG-2 (cancer cell lines of ATCC, Rockville, MD, USA). Vinblastine was applied as reference drug. The assay was conducted according to the methods described by Mossman and our recently published data.

[5] = tested on: hepatocellular carcinoma cell lines (HepG-2); assay: as above; format: cell-based, human; details: hepatocellular carcinoma cells, mean ± S.D.; for IC50: Homo sapiens, HepG2
Procedure: as §5

[6] = DPPH radical scavenging activity; details: antiradical scavenging; mean ± S.D.
Procedure: as §1
Briefly, various amounts of produced compounds were diluted with ultrapure water after being dissolved in dimethylsulfoxide (DMSO)/water (1/9; v/v) (1, 0.5, 0.250, 0.125, 0.0625, 0.03125 mg mL^−1). The samples were then combined with […] of a 4% (w/v) solution of the DPPH radical in ethanol. The combination was incubated for 30 min. at room temperature and in the dark. Spectrophotometric analysis was used to calculate the scavenging capacity by comparing the decrease in absorbance at 517 nm to a blank.
as §2

TyrE = TyrE (Agaricus bisporus, UniProt C7FF04); format: biochemical
TyrE, sequence (C7FF04 1-392): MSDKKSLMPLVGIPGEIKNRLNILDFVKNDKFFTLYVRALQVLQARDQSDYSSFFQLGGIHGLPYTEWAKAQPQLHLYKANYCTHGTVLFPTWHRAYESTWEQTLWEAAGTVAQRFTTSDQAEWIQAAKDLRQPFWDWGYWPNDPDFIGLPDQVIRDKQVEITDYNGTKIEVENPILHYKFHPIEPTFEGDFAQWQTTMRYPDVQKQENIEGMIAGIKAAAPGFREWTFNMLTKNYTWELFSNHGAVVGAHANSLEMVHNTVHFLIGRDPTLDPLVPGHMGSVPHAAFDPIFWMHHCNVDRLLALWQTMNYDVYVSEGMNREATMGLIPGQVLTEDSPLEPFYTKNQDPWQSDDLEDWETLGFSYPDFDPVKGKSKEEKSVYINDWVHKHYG

L. major promastigotes = assay: Antileishmanial assay, promastigotes; format: cell-based, Leishmania major; details: mean ± S.D.; for IC50: Leishmania major
Procedure: as §3

electric eel AChE = electric eel AChE (Electrophorus electricus, UniProt O42275); assay: biochemical; format: biochemical; details: mean ± S.D.; for IC50: read-out: AChEI IC50 (converted)
electric eel AChE, sequence (O42275 24-633): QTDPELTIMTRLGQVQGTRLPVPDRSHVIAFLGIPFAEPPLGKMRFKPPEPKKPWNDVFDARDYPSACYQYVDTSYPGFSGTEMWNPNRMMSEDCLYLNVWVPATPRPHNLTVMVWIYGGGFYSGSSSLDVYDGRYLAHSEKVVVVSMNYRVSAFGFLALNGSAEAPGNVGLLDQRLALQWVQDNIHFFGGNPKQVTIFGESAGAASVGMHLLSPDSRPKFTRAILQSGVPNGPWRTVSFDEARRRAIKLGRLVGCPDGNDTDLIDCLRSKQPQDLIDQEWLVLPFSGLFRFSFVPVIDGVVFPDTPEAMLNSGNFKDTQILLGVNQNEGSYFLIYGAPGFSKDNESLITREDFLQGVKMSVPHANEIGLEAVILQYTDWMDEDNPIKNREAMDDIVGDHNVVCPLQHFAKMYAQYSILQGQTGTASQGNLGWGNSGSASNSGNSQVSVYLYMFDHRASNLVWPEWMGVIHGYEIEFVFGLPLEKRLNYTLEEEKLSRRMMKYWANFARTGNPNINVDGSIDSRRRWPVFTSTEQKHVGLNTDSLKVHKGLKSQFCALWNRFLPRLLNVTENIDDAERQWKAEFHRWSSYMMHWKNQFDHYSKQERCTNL
Procedure: According to the Ellman et al. published spectrophotometric method of electric eel AChE [47], AChEI activity was measured. Acetylthiocholine iodide (ATCI) was used as the reaction’s substrate, and the antiacetylcholinesterase activity was measured using 5,5’-Dithiobis-(2-nitrobenzoic acid) (DTNB).

[7] = In vitro cytotoxicity assay, MTT; format: cell-based; details: African green monkey, Vero cells, mean ± S.D., read-out: CC50 Toxicity (Vero Cell)
Procedure: as §4

S. typhimurium = assay: Minimum inhibitory concentration (MIC); format: cell-based, Salmonella typhimurium
Procedure: (§6) Microorganisms, media and growth conditions, agar well diffusion method for inhibition zone determination (IZ) and minimum inhibitory concentration (MIC) were performed according to the literature work.
(§7) The synthesized compounds were examined in vitro for their antimicrobial activity against Six standard microorganisms of ATCC, two Gram positive bacteria S. aureus and Listeria monocytogenes, three Gram negative bacteria Esherichia coli, Pseudomonas aeruginosa and Salmonella typhimurium and the fungus C. albicans. Bacteria were cultured in Luria-Bertani (LB) medium, while Sabouraud agar was used for culturing C. albicans and the assay conducted according to our previous techniques. The results were the average of 3 readings.

L. monocytogenes = assay: Minimum inhibitory concentration (MIC); format: cell-based, Listeria monocytogenes
Procedure: as §6, §7

[8] = tested on: all examined microorganisms; assay: Antimicrobial activity, summary over all examined microorganisms; format: cell-based; details: all of the examined indicator organisms
Procedure: as §6, §7

C. albicans = assay: Minimum inhibitory concentration (MIC); format: cell-based
Procedure: as §6, §7

S. aureus = assay: Minimum inhibitory concentration (MIC); format: cell-based
Procedure: as §6, §7

| Compound | ABTS IC50 [1] [µM mL^−1] | Toxoplasma IC50 [2] [µM mL^−1] | β-Carotene IC50 [3] [µM mL^−1] | Amastigote IC50 (L. major amastigotes) [µM mL^−1] | CC50 Toxicity (Vero Cell) (Vero cell) [µM mL^−1] | IC50 HCT-116 [4] [µM mL^−1] | IC50 HepG-2 [5] [µM mL^−1] | DPPH IC50 [6] [µM mL^−1] | TyrEI IC50 (TyrE) [µM mL^−1] | Promastigotes IC50 (L. major promastigotes) [µM mL^−1] | IC50 [4] [µg/mL] | IC50 [5] [µg/mL] | other results |
| --- | --- | --- | --- | --- | --- | --- | --- | --- | --- | --- | --- | --- | --- |
| 5,6-Dimethyl-[1,3-(2,3,4,5,6-pentamethyl-2,4,6-trimethyl)-benzimidazol-2-ylidene](p-cymene) ruthenium(II) chloride [Compound 3a] | 41.78 ± 7.3 | 1.3 ± 0.2 | 401.12 ± 66.5 | 2.4 ± 0.4 | 1.2 ± 0.3 | 4.12 ± 0.6 | 9.21 ± 1.3 | 61.25 ± 10.3 | 50.75 ± 8.3 | 0.45 ± 0.07 | – | – | – |
| 5,6-dimethyl-1,3-bis(2,3,4,5,6-pentamethylbenzyl)-1H-benzo[d]imidazol-3-ium bromide [Compound 2a] | 39.12 ± 5.9 | 8.4 ± 1.0 | 395.75 ± 51.6 | 1.1 ± 0.1 | 1.2 ± 0.2 | 7.76 ± 1.1 | 11.75 ± 2.1 | 58.27 ± 7.4 | 45.05 ± 7.3 | 3.2 ± 0.5 | – | – | AChEI IC50 (electric eel AChE): 18.38 ± 2.7 µM mL^−1 |
| 5,6-dimethyl-1,3-(3,5)-dimethyl-4-methylbenzyl)-2,3-dihydro-1H-benzo[d]imidazolium bromide [Compound 2d] | 55.21 ± 7.4 | 3.8 ± 0.5 | 360.90 ± 40.8 | 1.4 ± 0.2 | 1.7 ± 0.3 | 16.04 ± 2.9 | 26.82 ± 3.6 | 74.25 ± 11.6 | 43.25 ± 6.8 | 1.9 ± 0.3 | – | – | AChEI IC50 (electric eel AChE): 22.27 ± 3.1 µM mL^−1 |
| Cc1ccc(C[n+]2cn(Cc3ccc(C(C)(C)C)cc3)c3cc(C)c(C)cc32)cc1 [Compound 2c, 5,6-dimethyl-1,3-((4-(tert-butyl)-4-methyl-benzyl)-1H-benzo[d]imidazol-3-ium bromide] | 51.27 ± 8.6 | – | 348.70 ± 52.1 | – | – | – | – | 70.23 ± 12.0 | – | – | 15.4 ± 2.6 | 20.6 ± 3.3 | IC50 [2]: 2.1 ± 0.3 µg/mL; IC50 (L. major amastigotes): 1.7 ± 0.2 µg/mL; CC50 [7]: 2.9 ± 0.4 µg/mL; IC50 (electric eel AChE): 51.6 µM; IC50 (L. major promastigotes): 5.8 ± 0.9 µg/mL |
| CC[C@]1(O)C[C@@H]2CN(CCc3c([nH]c4ccccc34)[C@@](C(=O)OC)(c3cc4c(cc3OC)N(C)[C@H]3[C@@](O)(C(=O)OC)[C@H](OC(C)=O)[C@]5(CC)C=CCN6CC[C@]43[C@@H]65)C2)C1 [vinblastine, reference compound] | – | – | – | – | – | – | – | – | – | – | 3.83 (≈ 4.72 µM) | 6.05 (≈ 7.46 µM) | – |
| 5,6-Dimethyl-[1,3-(2,3,4,5,6-pentamethyl-2,4,6-trimethyl)-benzimidazol-2-ylidene](p-cymene) ruthenium(II) chloride [Compound 3b] | 32.05 ± 4.2 | 1.4 ± 0.2 | 225.45 ± 31.5 | 1.1 ± 0.2 | 1.3 ± 0.3 | 19.45 ± 3.2 | 31.40 ± 4.8 | 43.05 ± 5.7 | 19.88 ± 2.4 | 0.74 ± 0.08 | – | – | MIC (S. typhimurium): 3.9 µM mL^−1; MIC (L. monocytogenes): 15.6 µM mL^−1; Inhibition of the examined indicator organisms [8]: inhibited; MIC (C. albicans): 1.25 µM mL^−1; MIC (S. aureus): 3.9 µM mL^−1 |
| 5,6-Dimethyl-[1,3-(4-(tert-butyl)-4-methyl)-benzimidazol-2-ylidene] (p-cymene) ruthenium (II) chloride [Compound 3c] | 45.04 ± 6.6 | 1.5 ± 0.3 | 374.87 ± 55.7 | 4.2 ± 0.8 | 1.9 ± 0.4 | 8.45 ± 1.2 | 12.73 ± 1.8 | 65.49 ± 11.2 | 38.17 ± 5.5 | 0.37 ± 0.06 | – | – | – |
| Cc1cc(C(C)(C)C)c(O)c(C(C)(C)C)c1 [BHT, butylated hydroxytoluene, reference compound] | 17.41 ± 2.9 | – | 89.55 ± 13.3 | – | – | – | – | 31.55 ± 4.8 | – | – | – | – | – |
| Cc1cc(C)c(Cn2c[n+](Cc3c(C)cc(C)cc3C)c3cc(C)c(C)cc32)c(C)c1.[Br-] [Compound 2b, 5,6-dimethyl-1,3-bis(2,4,6-trimethylbenzyl)-1H-benzo[d]imidazol-3-ium bromide] | 38.14 ± 4.9 | – | 325.55 ± 48.7 | – | – | – | – | 63.45 ± 10.1 | – | – | 13.6 ± 2 | 17.4 ± 2.7 | IC50 [2]: 3.7 ± 0.5 µg/mL; IC50 (L. major amastigotes): 0.3 ± 0.04 µg/mL; CC50 [7]: 1.1 ± 0.1 µg/mL; IC50 (electric eel AChE): 27.3 µM; IC50 (L. major promastigotes): 2.2 ± 0.3 µg/mL |
